What all share (experiment): In vitro antiviral activity in acutely infected MT4 cells, selected strain
Format in all cases: cell-based

Assay [1] has as its system HIV-1/LAI strain selected with NFV (1000 nM, 35 days), protease D30N M46I. Conditions: for EC50: Human immunodeficiency virus 1, Table 5, strain D30N M46I (NFV 1000 nM, 35 days), read-out: median EC50; for median FC (fold change in EC50 as compared to wild type): Table 5, strain D30N M46I (NFV 1000 nM, 35 days). The method in brief: (§1)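 Acute infection, MT4 cells 30,000/well + selected HIV-1 200-250 CCID50/well, serial compound dilutions; 5 d, 37° C, 5% CO2; MTT CPE readout; EC50/EC90 = 50%/90% protection.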

Assay [2] deals with HIV-1/LAI strain selected with NFV (3000 nM, 69 days), protease L10F D30N M46I V77I I85V/I N88D/N. The note with it: for EC50: Human immunodeficiency virus 1, Table 5, strain L10F D30N M46I V77I I85V/I N88D/N (NFV 3000 nM, 69 days), read-out: median EC50; for median FC (fold change in EC50 as compared to wild type): Table 5, strain L10F D30N M46I V77I I85V/I N88D/N (NFV 3000 nM, 69 days). The method in brief: as §1

In assay [3] the test system is HIV-1/LAI strain selected with Comp 1 (200 nM, 328 days), protease S37N R41S K70E. The note with it: for EC50: Human immunodeficiency virus 1, Table 2, strain S37N R41S K70E (Comp 1 200 nM, 328 days), read-out: median EC50; for median FC (fold change in EC50 as compared to wild type): Table 2, strain S37N R41S K70E (Comp 1 200 nM, 328 days). The procedure, abridged:
as §1

In assay [4] the test system is HIV-1/LAI strain selected with Compound 2 (100 nM), protease R41I; Table 3. Conditions: Human immunodeficiency virus 1, R41I strain selected with Compound 2 100 nM (head lists 116, 200, 264 days; assignment unclear), read-out: median EC50. The method in brief: as §1
For assay [5], the system named is HIV-1 strain selected with Comp 1 (40 nM, 175 days), protease R41G V82I. Conditions: for EC50: Human immunodeficiency virus 1, Table 4, strain R41G V82I (Comp 1 40 nM, 175 days), read-out: median EC50; for median FC (fold change in EC50 as compared to wild type): Table 4, strain R41G V82I (Comp 1 40 nM, 175 days). The method in brief: as §1
In assay [6] the test system is HIV-1/LAI strain selected with Comp 1 (100 nM, 139 days), protease S37S/N R41R/K K70E. The note with it: for EC50: Human immunodeficiency virus 1, Table 2, strain S37S/N R41R/K K70E (Comp 1 100 nM, 139 days), read-out: median EC50; for median FC (fold change in EC50 as compared to wild type): Table 2, strain S37S/N R41R/K K70E (Comp 1 100 nM, 139 days). The procedure, abridged: as §1

A word on the EC50: it is the midpoint of the concentration-response curve. `CC(C)CN(C[C@@H](O)[C@H](Cc1ccccc1)NC(=O)O[C@H]1CCOC1)S(=O)(=O)c1ccc(N)cc1` [Amprenavir]: the EC50 in assay [1] came to 28 nM; in assay [2], 59 nM; in assay [3] it was 15 nM; in assay [4], 14 nM; in assay [5] it was 9.4 nM; in assay [6] it was 24 nM. Further, the “median FC (fold change in EC50 as compared to wild type)” value in assay [1] is recorded as 1; in assay [2] it was 3; in assay [3], 1; in assay [5] it was 0; in assay [6], 1.

For the compound `CC(C)(C)NC(=O)[C@@H]1CN(Cc2cccnc2)CCN1C[C@@H](O)C[C@@H](Cc1ccccc1)C(=O)N[C@H]1c2ccccc2C[C@H]1O` [Indinavir], the 50% effective concentration (EC50) came out at 7.9 nM in assay [1]; 5.5 nM in assay [3]; 19 nM in assay [4]; 3.9 nM in assay [5]; 6.3 nM in assay [6]. For the same compound, the “median FC (fold change in EC50 as compared to wild type)” value came to 1 in assay [1], 0.5 in assay [3], 0 in assay [5] and 1 in assay [6].

As for `Cc1c(O)cccc1C(=O)N[C@@H](CSc1ccccc1)[C@H](O)CN1C[C@H]2CCCC[C@H]2C[C@H]1C(=O)NC(C)(C)C` [Nelfinavir], the EC50 in assay [1] came out at 330 nM; in assay [3] it was 1.9 nM; in assay [4] it was 16 nM; in assay [5], 16 nM; in assay [6], 9.7 nM. In addition, the “median FC (fold change in EC50 as compared to wild type)” value in assay [1] was 9; in assay [3], 0.1; in assay [5] it was 0; in assay [6] it was 0.3.

Turning to `CC(C)(C)NC(=O)[C@@H]1C[C@@H]2CCCC[C@@H]2CN1C[C@@H](O)[C@H](Cc1ccccc1)NC(=O)[C@H](CC(N)=O)NC(=O)c1ccc2ccccc2n1` [Saquinavir], the 50% effective concentration (EC50) is 1.8 nM in assay [1]; 2.5 nM in assay [2]; 4 nM in assay [3]; 0.8 nM in assay [5]; 0.7 nM in assay [6]. For the same compound, the “median FC (fold change in EC50 as compared to wild type)” value in assay [1] was 0; in assay [2] it was 0; in assay [3] it was 1; in assay [5], 0; in assay [6], 0.1.
